Consider nine molecules from ChEMBL document CHEMBL3352218, “Structural basis for inhibition of mycobacterial and human adenosine kinase by 7-substituted 7-(Het)aryl-7-deazaadenine ribonucleosides” (J Med Chem, 2014).

Converted amounts (≈) assume the structure as drawn. The source made the active and inactive calls. The rule behind the calls is not given here.

One experiment relates to MRC5. Put plainly: Cytotoxicity against human MRC5 cells by MTT assay. Format: functional. (Tetrazolium assays rely on reduction of a dye to a coloured formazan, in cell work by metabolically active cells.)
The subject of experiment [1] is Mycobacterium tuberculosis. Kind of experiment: Activity of Mycobacterium tuberculosis ADK expressed in Escherichia coli BL21(DE3) cells assessed as compound phosphorylation by measuring conversion of compound to 5'-phosphate.
In experiment [2] the test system is Mycobacterium tuberculosis. Kind of experiment: Binding affinity to Mycobacterium tuberculosis ADK expressed in Escherichia coli BL21(DE3) cells assessed as relative STD enhancements of signal from H-2 at 500 uM by 1H STD NMR spectroscopy.
The test system of experiment [3] is Mycobacterium tuberculosis. Put plainly: Binding affinity to Mycobacterium tuberculosis ADK expressed in Escherichia coli BL21(DE3) cells assessed as relative STD enhancements of signal from H-8 at 500 uM by 1H STD NMR spectroscopy.
The target of experiment [4] is T1, Adenosine kinase (Homo sapiens, UniProt P55263). Kind of experiment: Binding affinity to human ADK expressed in Escherichia coli BL21(DE3) cells in presence of ATPgammaS by two dimensional 15N/1H triple-resonance HSQC NMR spectroscopy.
Target sequence in this assay (P55263 2-362 limits assumed): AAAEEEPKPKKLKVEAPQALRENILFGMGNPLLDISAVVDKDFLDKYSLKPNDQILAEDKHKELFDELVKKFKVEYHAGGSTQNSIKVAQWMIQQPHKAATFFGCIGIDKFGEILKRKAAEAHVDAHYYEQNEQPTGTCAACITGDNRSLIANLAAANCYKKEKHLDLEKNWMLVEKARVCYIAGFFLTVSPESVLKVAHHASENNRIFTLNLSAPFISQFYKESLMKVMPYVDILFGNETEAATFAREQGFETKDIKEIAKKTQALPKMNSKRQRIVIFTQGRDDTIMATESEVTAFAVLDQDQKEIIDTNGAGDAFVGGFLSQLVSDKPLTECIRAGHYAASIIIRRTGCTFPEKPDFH
For experiment [5], the system named is Mycobacterium tuberculosis. Put plainly: Antimycobacterial activity against Mycobacterium tuberculosis H37Rv My 331/88 assessed as microbial growth inhibition incubated for 14 days. Format: functional. The conditions noted are these: H37Rv My 331/88, 336 h.
Experiment [6] concerns the target T1, Adenosine kinase. Kind of experiment: Binding affinity to human ADK expressed in Escherichia coli BL21(DE3) cells assessed as relative STD enhancements of signal from H-8 at 500 uM by 1H STD NMR spectroscopy.
Target sequence in this assay (P55263 2-362 limits assumed): as above
In experiment [7] the target is T1, Adenosine kinase. Kind of experiment: Activity of human ADK expressed in Escherichia coli BL21(DE3) cells assessed as compound phosphorylation by measuring conversion of compound to 5'-phosphate. Also on record: concentration or dose not given beside the values.
Target sequence in this assay (P55263 2-362 limits assumed): as above
The target of experiment [8] is T1, Adenosine kinase. Put plainly: Binding affinity to free human ADK expressed in Escherichia coli BL21(DE3) cells by two dimensional 15N/1H triple-resonance HSQC NMR spectroscopy.
Target sequence in this assay (P55263 2-362 limits assumed): as above
For the next experiment, the system named is BJ. Put plainly: Cytotoxicity against human BJ cells by MTT assay. Format: functional.
Experiment [9] has as its system Mycobacterium tuberculosis. Kind of experiment: Binding affinity to Mycobacterium tuberculosis ADK expressed in Escherichia coli BL21(DE3) cells assessed as relative STD enhancements of signal from H-1' at 500 uM by 1H STD NMR spectroscopy.
Experiment [10] concerns Mycobacterium tuberculosis. Kind of experiment: Binding affinity to Mycobacterium tuberculosis ADK expressed in Escherichia coli BL21(DE3) cells assessed as relative STD enhancements of signal from Ar at 500 uM by 1H STD NMR spectroscopy.
For experiment [11], the target named is T1, Adenosine kinase. Put plainly: Inhibition of human ADK expressed in Escherichia coli BL21(DE3) cells using [3H]adenosine by liquid scintillation counting method.
Target sequence in this assay (P55263 whole entry): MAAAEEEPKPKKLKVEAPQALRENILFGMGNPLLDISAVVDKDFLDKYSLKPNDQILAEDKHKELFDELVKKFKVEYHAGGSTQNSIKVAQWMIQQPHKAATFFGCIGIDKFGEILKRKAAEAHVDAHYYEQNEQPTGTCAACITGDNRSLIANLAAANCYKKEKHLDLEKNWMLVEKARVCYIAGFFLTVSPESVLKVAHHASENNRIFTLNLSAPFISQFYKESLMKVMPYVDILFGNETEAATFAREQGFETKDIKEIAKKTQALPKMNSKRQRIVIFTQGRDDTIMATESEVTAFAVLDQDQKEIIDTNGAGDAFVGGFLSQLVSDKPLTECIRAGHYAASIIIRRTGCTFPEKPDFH
The nature of experiment [12]: Inhibition of Mycobacterium tuberculosis ADK expressed in Escherichia coli BL21(DE3) cells using [3H]adenosine by liquid scintillation counting method.
Experiment [13] addresses T1, Adenosine kinase. Kind of experiment: Binding affinity to human ADK expressed in Escherichia coli BL21(DE3) cells in presence of adenosine by two dimensional 15N/1H triple-resonance HSQC NMR spectroscopy.
Target sequence in this assay (P55263 2-362 limits assumed): as the sequence (P55263 2-362 limits assumed) above
The target of experiment [14] is T1, Adenosine kinase. Put plainly: Binding affinity to human ADK expressed in Escherichia coli BL21(DE3) cells assessed as relative STD enhancements of signal from H-1' at 500 uM by 1H STD NMR spectroscopy.
Target sequence in this assay (P55263 2-362 limits assumed): as above
The target in experiment [15] is T1, Adenosine kinase. Put plainly: Binding affinity to human ADK expressed in Escherichia coli BL21(DE3) cells assessed as relative STD enhancements of signal from H-2 at 500 uM by 1H STD NMR spectroscopy.
Experiment [16] concerns the target T1, Adenosine kinase. Put plainly: Binding affinity to human ADK expressed in Escherichia coli BL21(DE3) cells assessed as relative STD enhancements of signal from Ar at 500 uM by 1H STD NMR spectroscopy.
For experiment [17], the system named is Mycobacterium tuberculosis. Kind of experiment: Binding affinity to Mycobacterium tuberculosis ADK expressed in Escherichia coli BL21(DE3) cells assessed as relative STD enhancements of signal from Ar' at 500 uM by 1H STD NMR spectroscopy.
The test system of experiment [18] is Mycobacterium tuberculosis. Put plainly: Binding affinity to Mycobacterium tuberculosis ADK expressed in Escherichia coli BL21(DE3) cells assessed as relative STD enhancements of signal from Ar'' at 500 uM by 1H STD NMR spectroscopy.
Experiment [19] concerns the target T1, Adenosine kinase. Kind of experiment: Mixed uncompetitive inhibition of human ADK expressed in Escherichia coli BL21(DE3) cells using varying ATP levels by Lineweaver-Burk plot.
Experiment [20] has as its target T1, Adenosine kinase. Kind of experiment: Mixed competitive inhibition of human ADK expressed in Escherichia coli BL21(DE3) cells using varying adenosine levels by Lineweaver-Burk plot.
Experiment [21] deals with Mycobacterium tuberculosis. Kind of experiment: Mixed competitive inhibition of Mycobacterium tuberculosis ADK expressed in Escherichia coli BL21(DE3) cells using varying adenosine levels by Lineweaver-Burk plot.
Experiment [22] concerns Mycobacterium tuberculosis. Kind of experiment: Mixed competitive inhibition of Mycobacterium tuberculosis ADK expressed in Escherichia coli BL21(DE3) cells using varying ATP levels by Lineweaver-Burk plot.

On to `Nc1ncnc2c1c(-c1nccs1)cn2[C@@H]1O[C@H](CO)[C@@H](O)[C@H]1O`, for which the CC50 (usually the concentration at which the toxic effect on the cells reaches its halfway point) in the experiment with MRC5 was 25.1 µM; in the experiment on BJ, greater than 100 µM. Besides, the result in experiment [1] was inactive. In addition, the Activity in experiment [2] was 37%; in experiment [3], 33%; at Adenosine kinase [6], 41%; on Adenosine kinase [7] it was 3%; in [9], 100%; in experiment [10], 34%. In addition, the Activity was 100% at Adenosine kinase [14], 57% at Adenosine kinase [15], 52% at Adenosine kinase [16] and 45% in [17]. Further, the result on Adenosine kinase [4], at Adenosine kinase [8] and at Adenosine kinase [13] was Active. Also, the MIC (commonly the lowest concentration found to suppress growth) in experiment [5] was 125 µM (≈ 43.7 µg/mL). The figures for the IC50 (against Adenosine kinase [11]; in experiment [12]) were 2.3 µM and 4.5 µM, respectively.

Turning to `Nc1ncnc2c1ncn2[C@@H]1O[C@H](CO)[C@@H](O)[C@H]1O`, the Activity in experiment [2] was 44%; in experiment [3], 58%; at Adenosine kinase [6], 20%; in experiment [9] it was 100%; on Adenosine kinase [14], 100%; on Adenosine kinase [15], 8%.

For the molecule `Nc1ncnc2c1ncn2[C@@H]1O[C@H](COP(=O)(O)OP(=O)(O)OP(=O)(O)O)[C@@H](O)[C@H]1O`, the Activity is 57% in [2]; 24% in experiment [3]; less than 1% at Adenosine kinase [6]; 100% in experiment [9]; 100% at Adenosine kinase [14]; less than 1% on Adenosine kinase [15].

For `Nc1ncnc2c1c(-c1cccc3c1Oc1ccccc1S3)cn2[C@@H]1O[C@H](CO)[C@@H](O)[C@H]1O`, the CC50 in the experiment on MRC5 is 95.1 µM; in the experiment on BJ, greater than 100 µM. Further, in experiment [1], the outcome was inactive. Further, the Activity in experiment [2] was 50%; in experiment [3], 68%; on Adenosine kinase [6], 39%; in [9], 100%; in [10], 83%; on Adenosine kinase [14] it was 100%. In addition, the Activity at Adenosine kinase [15] was found to be 33%; on Adenosine kinase [16], 60%. Further, the outcome at Adenosine kinase [4], on Adenosine kinase [8] and at Adenosine kinase [13] was Active. The minimum inhibitory concentration (MIC) in experiment [5] worked out at 16 µM (≈ 7.43 µg/mL). Further, the IC50 – broadly, the concentration at which inhibition is half-maximal – is greater than 20 µM against Adenosine kinase [11] and 0.3 µM in experiment [12].

Consider `CC(C)c1cccc(-c2cn([C@@H]3O[C@H](CO)[C@@H](O)[C@H]3O)c3ncnc(N)c23)c1`, for which the 50% cytotoxic concentration (CC50) with MRC5 and with BJ was greater than 100 µM in each case. Besides, in [1], the result was inactive. In addition, the Activity in [2] amounted to 42%; in experiment [3], 42%; on Adenosine kinase [6], 72%; in experiment [9], 100%; in experiment [10], 37%; on Adenosine kinase [14], 100%. Besides, the Activity on Adenosine kinase [15] is 72%; on Adenosine kinase [16] it was 52%. The outcome on Adenosine kinase [4], at Adenosine kinase [8] and at Adenosine kinase [13] was Active. For the same molecule, in experiment [5], the MIC is 32 µM (≈ 12.3 µg/mL). Moreover, the values for the IC50 (at Adenosine kinase [11]; in experiment [12]) were 3.3 µM and 2.33 µM, respectively.

As for `Nc1ncnc2c1c(-c1cc[nH]c1)cn2[C@@H]1O[C@H](CO)[C@@H](O)[C@H]1O`, the CC50 with MRC5 turned out to be 5.05 µM; with BJ it was 10.1 µM. Further, the outcome in experiment [1] was inactive. For the same molecule, the MIC in experiment [5] was found to be 62.5 µM (≈ 20.7 µg/mL). In addition, the Activity at Adenosine kinase [7] is 20%. Further, the figures for the IC50 (at Adenosine kinase [11]; in experiment [12]) were 4.5 µM and greater than 10 µM, respectively.

On to `Nc1ncnc2c1c(-c1c[nH]nn1)cn2[C@@H]1O[C@H](CO)[C@@H](O)[C@H]1O`, for which the figures for the CC50 in the experiment on MRC5 and with BJ were 0.1 µM and 0.08 µM, respectively. Moreover, the outcome in experiment [1] was inactive. In addition, the MIC in experiment [5] was greater than 250 µM. The Activity at Adenosine kinase [7] worked out at 37%. The IC50 is greater than 20 µM against Adenosine kinase [11] and greater than 10 µM in [12].

As to `Nc1ncnc2c1c(-c1ccco1)cn2[C@@H]1O[C@H](CO)[C@@H](O)[C@H]1O`, the CC50 came out at 9.49 µM in the experiment on MRC5 and 18.3 µM in the experiment with BJ. The result in [1] was inactive. In addition, the Activity in [2] was determined as 43%; in experiment [3], 29%; in [18] it was 39%; at Adenosine kinase [6], 36%; on Adenosine kinase [7], 8%; in experiment [9] it was 100%. Besides, the Activity was determined as 38% in [10]; 100% at Adenosine kinase [14]; 64% at Adenosine kinase [15]; 74% on Adenosine kinase [16]; 31% in experiment [17]. Moreover, the outcome on Adenosine kinase [4], on Adenosine kinase [8] and on Adenosine kinase [13] was Active. Also, the MIC in [5] came to 62.5 µM (≈ 20.8 µg/mL). In addition, the IC50 against Adenosine kinase [11] was greater than 5 µM; in experiment [12], 2.1 µM.

Consider `C#Cc1cn([C@@H]2O[C@H](CO)[C@@H](O)[C@H]2O)c2ncnc(N)c12`, for which the CC50 in the experiment with MRC5 came out at 13.4 µM; with BJ it was 43.1 µM. Moreover, in experiment [1], the outcome was inactive. In addition, the Activity was 63% in experiment [2]; 54% in [3]; 17% at Adenosine kinase [6]; 62% at Adenosine kinase [7]; 100% in [9]; 100% on Adenosine kinase [14]. The Activity on Adenosine kinase [15] is 33%. Further, the inhibition entry (on Adenosine kinase [19]; on Adenosine kinase [20]; in experiment [21]; in experiment [22]) was “Active” throughout. Moreover, the outcome at Adenosine kinase [4], at Adenosine kinase [8] and at Adenosine kinase [13] was Active. Moreover, in experiment [5], the MIC was 8 µM (≈ 2.32 µg/mL). In experiment [12], this molecule registered an IC50 of 0.33 µM.
